ChEMBL document CHEMBL4229541, “Vinca alkaloids and analogues as anti-cancer agents: Looking back, peering ahead” (Bioorg Med Chem Lett, 2018)
pIC50: −log10 of the molar value.

Columns and labels:
Format in all cases: functional, cell-based
L1210 = experiment: Growth inhibition of mouse L1210 cells
HCT-116 = experiment: Growth inhibition of human HCT116 cells
HCT-116/VM46 = experiment: Growth inhibition of human HCT116/VM46 cells

Structure (SMILES)	pIC50 (L1210)	pIC50 (HCT-116)	pIC50 (HCT-116/VM46)
CC[C@]1(O)C[C@@H]2CN(CCc3c([nH]c4ccccc34)[C@@](C(=O)OC)(c3cc4c(cc3OC)N(C)[C@H]3[C@]5(O)C(=O)N(C)CCC5[C@]5(CC)CCCN6CC[C@]43C65)C2)C1 (some centres undefined)	5.08	5.10	< 5.00
CC[C@]1(O)C[C@@H]2CN(CCc3c([nH]c4ccccc34)[C@@](C(=O)OC)(c3cc4c(cc3OC)N(C)[C@H]3[C@@](O)(C(=O)OC)[C@H](OC(C)=O)[C@]5(CC)C[C@@H](O)CN6CC[C@]43[C@@H]65)C2)C1	5.12	5.11	< 5.00
CC[C@]1(N=[N+]=[N-])C[C@@H]2CN(CCc3c([nH]c4ccccc34)[C@@](C(=O)OC)(c3cc4c(cc3OC)N(C)[C@H]3[C@@](O)(C(=O)OC)[C@H](OC(C)=O)[C@]5(CC)C=CCN6CC[C@]43[C@@H]65)C2)C1	6.17	6.16	5.26
CC[C@]1(N)C[C@@H]2CN(CCc3c([nH]c4ccccc34)[C@@](C(=O)OC)(c3cc4c(cc3OC)N(C)[C@H]3[C@@](O)(C(=O)OC)[C@H](OC(C)=O)[C@]5(CC)C=CCN6CC[C@]43[C@@H]65)C2)C1	6.19	6.22	< 5.00
CC[C@]1(O)C[C@@H]2CN(CCc3c([nH]c4ccccc34)[C@@](C(=O)OC)(c3cc4c(cc3OC)N(C)[C@H]3[C@@](O)(C(=O)OC)[C@H](OC(C)=O)[C@]5(CC)C=CCN6CC[C@]43[C@@H]65)C2)C1 [VINBLASTINE]	–	–	6.22
CC[C@]1(O)C[C@@H]2CN(CCc3c([nH]c4ccccc34)[C@@](C(=O)OC)(c3cc4c(cc3OC)N(C)[C@H]3[C@@](O)(C(=O)OC)[C@H](C(=O)OC)[C@]5(CC)C=CCN6CC[C@]43[C@@H]65)C2)C1	8.09	8.21	–
CC[C@]1(O)C[C@@H]2CN(CCc3c([nH]c4ccccc34)[C@@](C(=O)OC)(c3cc4c(cc3OC)N(C)[C@@H]3[C@]45CCN4CC=C[C@@](CC)(C[C@]3(O)C(=O)OC)[C@H]45)C2)C1	4.24	4.22	3.18

Continued, values first:

pIC50 (L1210)	pIC50 (HCT-116)	pIC50 (HCT-116/VM46)	Structure (SMILES)
6.26	6.25	5.28	CC[C@]1(O)C[C@@H]2CN(CCc3c([nH]c4ccccc34)[C@@](C(=O)OC)(c3cc4c(cc3OC)N(C)[C@@H]3[C@]45CCN4CC=C[C@@](C)(C[C@]3(O)C(=O)OC)[C@H]45)C2)C1
6.08	6.15	5.07	CC[C@]1(O)C[C@@H]2CN(CCc3c([nH]c4ccccc34)[C@@](C(=O)OC)(c3cc4c(cc3OC)N(C)[C@H]3[C@@](O)(C(=O)OC)[C@H](OC(C)=O)[C@]5(CC)C[C@@H](Cl)CN6CC[C@]43[C@@H]65)C2)C1
6.21	6.20	< 5.00	CC[C@]1(O)C[C@@H]2CN(CCc3c([nH]c4ccccc34)[C@@](C(=O)OC)(c3cc4c(cc3OC)N(C)[C@H]3[C@@](O)(C(=O)OC)[C@H](OC(C)=O)[C@]5(CC)C[C@H](O)CN6CC[C@]43[C@@H]65)C2)C1
6.23	6.28	5.15	CC[C@]1(N=C=S)C[C@@H]2CN(CCc3c([nH]c4ccccc34)[C@@](C(=O)OC)(c3cc4c(cc3OC)N(C)[C@H]3[C@@](O)(C(=O)OC)[C@H](OC(C)=O)[C@]5(CC)C=CCN6CC[C@]43[C@@H]65)C2)C1
6.25	6.26	5.54	CC[C@]1(SC#N)C[C@@H]2CN(CCc3c([nH]c4ccccc34)[C@@](C(=O)OC)(c3cc4c(cc3OC)N(C)[C@H]3[C@@](O)(C(=O)OC)[C@H](OC(C)=O)[C@]5(CC)C=CCN6CC[C@]43[C@@H]65)C2)C1
6.24	6.28	5.18	CC[C@]1(O)C[C@@H]2CN(CCc3c([nH]c4ccccc34)[C@@](C(=O)OC)(c3cc4c(cc3OC)N(C)[C@H]3[C@]5(O)C(=O)N(C)CCC5[C@@H]5CCCN6CC[C@]43C56)C2)C1 (some centres undefined)
6.21	6.40	5.46	CC[C@]1(O)C[C@@H]2CN(CCc3c([nH]c4ccccc34)[C@@](C(=O)OC)(c3cc4c(cc3OC)N(C)[C@@H]3[C@]45CCN4CC=C[C@@H](C[C@]3(O)C(=O)OC)[C@H]45)C2)C1
